Patent US11479580B2, “Polypeptide expressed in the stratum corneum and use thereof” (CENTRE NATIONAL DE LA RECHERCHE SCIENTIFIQUE—CNRS, priority 2010, dated 2022)

How the values were obtained:
[1] = test system: transglutaminases present in the granular layer of the human epidermis; experiment: In situ binding assay of biotinylated polypeptides on cryosections of human abdominal skin; format: biochemical; conditions: 100 μM; for marking of the contour of the granular keratinocytes (polypeptide bound to cornified envelopes): 5 mM CaCl2, 2 h at room temperature, confocal microscope; for marking of the granular keratinocytes, negative control: 100 mM EDTA, absence of calcium
Protocol: To determine what region of the LCE6A protein is necessary for binding by the transglutaminases, the applicant arranged for the company MilleGen to synthesize various polypeptides, biotinylated at their N-terminal end, with a length of 9 to 13 amino acids, corresponding to different regions of the amino acid sequence of LCE6A.
These polypeptides were used in binding assays in situ. Cryosections of human abdominal skin, saturated by incubation in the presence of bovine albumin at 1% in PBS for 30 minutes at room temperature, were brought into contact with 100 mM Tris (pH 7.4) containing 100 μM of biotinylated polypeptide and 5 mM of CaCl2. After incubation for 2 h at room temperature, the reaction is stopped by adding EDTA at 25 mM for 5 minutes. The sections are then incubated in PBS containing 1% of SDS to destroy the noncovalent bonds.
The presence of biotinylated polypeptides bound to the cornified envelopes by the transglutaminases that are present and active in the tissue is detected by incubation of the sections with streptavidin-AlexaFluor555 at 5 μg/ml (Invitrogen) and visualization in the confocal microscope.
A positive control is performed in a similar experiment but by incubating the sections with 100 μM of cadaverine coupled to AlexaFluor555 (Invitrogen) instead of the polypeptides. For the negative controls, the cryosections are incubated with each biotinylated polypeptide or with cadaverine coupled to AlexaFluor555 but incubation is carried out in the presence of 100 mM of EDTA and in the absence of calcium.

[2] = test system: endogenous transglutaminase; experiment: In vitro crosslinking binding assay with short peptide analogues of LCE6A fragments on human skin cryosections; format: biochemical; conditions: for labelling of the contour of the granular keratinocytes (peptide crosslinked to cornified envelopes) / labelling of the granular keratinocytes, negative control: 100 μM; for labelling of the contour of the granular keratinocytes (peptide crosslinked to cornified envelopes): 5 mM CaCl2, 2 h at room temperature, fluorescence microscope; for labelling of the granular keratinocytes, negative control: in the presence of EDTA, absence of calcium
Protocol: Protocol: The following short peptides derived from the amino acid sequences PEVQKP of LCE6A (amino-acids 49 to 54 of SEQ ID NO:2), which sequences meet the criteria defined above and are biotinylated at their amino-terminus, were synthesized: PGVQKP (SEQ ID NO: 7), PEGQKP (SEQ ID NO: 8), GEVQKP (SEQ ID No: 9), PEVQKG (SEQ ID No: 10).
These peptides were used at a concentration of 100 μM in in situ binding assays. Cryosections of human abdominal skin, saturated by incubation in the presence of bovine albumin at 1% in PBS for 30 minutes at room temperature, were brought into contact with 100 mM Tris (pH 7.4) containing 100 μM of biotinylated polypeptide and 5 mM of CaCl2). After incubation for 2 h at room temperature, the reaction was stopped by adding EDTA at 25 mM for 20 minutes. The sections were then incubated in PBS containing 1% of SDS to destroy the noncovalent bonds. The presence of biotinylated polypeptides bound to the cornified envelopes by the transglutaminases that are present and active in the tissue was detected by incubation of the sections with streptavidin-AlexaFluor555 at 5 μg/ml (Invitrogen) and visualization in the fluorescence microscope. A positive control was performed in a similar experiment but by incubating the sections with 100 μM of the peptide PEVQKP of LCE6A (amino-acids 49 to 54 of SEQ ID NO: 2). For the negative control, the cryosections were incubated with each biotinylated polypeptide but incubation was carried out in the presence of 100 mM of EDTA and in the absence of calcium.

Row | Substance | marking of the granular keratinocytes, negative control [1] | marking of the contour of the granular keratinocytes (polypeptide bound to cornified envelopes) [1] | also measured
1 | RPAPPPISGGGYRAR (Control peptide of SEQ ID NO 19) [reference compound] | – | does not give any pericellular marking | –
2 | EVAKPRRARQALR (Mutated peptide of SEQ ID NO 5) [reference compound] | – | does not give any pericellular marking | –
3 | MSQAKQQSW (Mutated peptide of SEQ ID NO 3) [reference compound] | – | does not give any pericellular marking | –
4 | SEQ ID NO: 4: polypeptide fragment of LCE6A, 9 to 13 amino acids, sequence not printed in the text (SSQRPEVQKPR; Designed peptide based on homology to amino acid residue 45 to 55 from Protein LCE6A) | no marking is obtained | – | –
5 | PEVQKP (fragment) | – | – | labelling of the contour of the granular keratinocytes (peptide crosslinked to cornified envelopes) [2]: labelling of the contour of the granular keratinocytes; labelling of the granular keratinocytes, negative control [2]: Absence of labelling
6 | SEQ ID NO: 3: polypeptide fragment of LCE6A, 9 to 13 amino acids, sequence not printed in the text (MSQQKQQSW; Designed peptide based on homology to amino acid residue 1 to 9 from Protein LCE6A) | no marking is obtained | – | –
7 | SEQ ID NO: 5: polypeptide fragment of LCE6A, 9 to 13 amino acids, sequence not printed in the text (EVQKPRRARQKLR; Designed peptide based on homology to amino acid residue 50 to 62 from Protein LCE6A) | no marking is obtained | – | –
8 | PEVQKG (Designed peptide based on homology to amino acid residue 49 to 54 from Protein LCE6A) | – | – | ability to bind cornified envelopes (conclusion) [2]: possesses the ability to bind cornified envelopes; labelling of the contour of the granular keratinocytes (peptide crosslinked to cornified envelopes) [2]: strong labelling of the contour of the granular keratinocytes; labelling of the granular keratinocytes, negative control [2]: Absence of labelling
